Experimental data from US20250129067A1 (Progentos Therapeutics, Inc., priority 2021, published 2025).
Like-named read-outs stand apart in the source and are kept apart here.

Experiments:
[1] = system: Oligodendrocyte progenitor cells (OPCs); assay: In vitro OPC differentiation assay, GPR17 expression (immunocytochemistry); conditions: 72 hours; for GPR17 Fold Induction (Over Vehicle; 3 μM): 3 μM (10× concentration, final 0.3 μM), fold change over vehicle; for GPR17 Fold Induction (Over Vehicle; 5 μM): primary rat OPCs, 5 μM (10x; final 0.5 μM per method), percent GPR17+ cells as fold change over vehicle
[2] = system: GPR17+ cells (newly differentiated oligodendrocytes); assay: In vivo OPC differentiation, GPR17+ cells in brain; conditions: for In vivo GPR17+ cells, GPR17 Fold Induction (Over Vehicle): adult female C57BL/6 mice, PO or IP, treatment period 1-3 days, entire brain, fold change over vehicle treated animals
[3] = target: PDGFRα (Homo sapiens (Human), UniProt P16234); assay: PDGFRα kinase enzyme assay (Promega PDGFRα Kinase Enzyme System, ADP-Glo); assay type: biochemical; conditions: 150 uM ATP
Sequence of PDGFRα (P16234 24-1089): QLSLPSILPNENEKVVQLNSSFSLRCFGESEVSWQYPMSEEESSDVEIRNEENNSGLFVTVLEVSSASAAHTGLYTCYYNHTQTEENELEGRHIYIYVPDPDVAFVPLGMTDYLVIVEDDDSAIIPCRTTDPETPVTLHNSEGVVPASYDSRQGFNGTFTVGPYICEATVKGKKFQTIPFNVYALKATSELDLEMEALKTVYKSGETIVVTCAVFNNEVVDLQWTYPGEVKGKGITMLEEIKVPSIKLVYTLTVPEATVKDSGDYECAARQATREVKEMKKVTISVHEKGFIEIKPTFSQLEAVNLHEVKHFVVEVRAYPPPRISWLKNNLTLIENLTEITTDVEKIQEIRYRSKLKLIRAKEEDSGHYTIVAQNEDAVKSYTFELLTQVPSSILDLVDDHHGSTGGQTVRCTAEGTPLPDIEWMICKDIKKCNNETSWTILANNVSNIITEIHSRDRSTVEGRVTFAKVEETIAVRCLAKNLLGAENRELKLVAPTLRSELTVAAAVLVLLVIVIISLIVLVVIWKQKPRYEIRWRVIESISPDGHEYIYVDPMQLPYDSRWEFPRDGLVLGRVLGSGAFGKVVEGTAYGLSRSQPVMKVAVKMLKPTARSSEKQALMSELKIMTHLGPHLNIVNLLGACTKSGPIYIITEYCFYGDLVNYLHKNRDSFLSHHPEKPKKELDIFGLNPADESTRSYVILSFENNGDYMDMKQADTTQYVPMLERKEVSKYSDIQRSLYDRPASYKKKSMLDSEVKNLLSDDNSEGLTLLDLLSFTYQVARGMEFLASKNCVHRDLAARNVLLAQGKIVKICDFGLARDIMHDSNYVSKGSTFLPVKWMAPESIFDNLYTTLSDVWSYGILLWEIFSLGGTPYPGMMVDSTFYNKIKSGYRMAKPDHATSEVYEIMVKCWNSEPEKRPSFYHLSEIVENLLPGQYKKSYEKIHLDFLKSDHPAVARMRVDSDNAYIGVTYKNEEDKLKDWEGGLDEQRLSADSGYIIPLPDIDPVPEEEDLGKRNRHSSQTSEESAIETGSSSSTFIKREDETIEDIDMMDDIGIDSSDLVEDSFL
How it was run: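 Read-out was ADP-Glo: remaining ATP depleted, ADP converted to luminescence and compared with a standard curve.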

[4] = Mus musculus, po, 24 h, read-out: GPR17 Fold Induction (Over Vehicle)
[5] = 11-point dose response, 10,000 nM to 0.169 nM, BLQ = below limit of quantitation, read-out: IC50 Values on PDGFRα Kinase Inhibition, IC50
[6] = 20 ng purified PDGFRα, Poly (Glu4Tyr1) substrate, two hours, 11-point dose response, read-out: IC50 Values on PDGFRα Kinase Inhibition

Row | Compound | GPR17 Fold Induction (Over Vehicle; 3 μM) [1] | IC50 [3, 5] [nM] | fold induction at 3 mg/kg [2, 4] | further results
1 | Cn1cc(-c2ccc3c(N4CCN(C(=O)NCc5ccc(C(F)(F)F)cc5)CC4)cnn3c2)cn1 [Compound 279, 4-[6-(1-methyl-1H-pyrazol-4-yl)pyrazolo[1,5-a]pyridin-3-yl]-N-[4-(trifluoromethyl)benzyl]piperazine-1-carboxamide] | 3.62 | 58.9 | 6.33 | –
2 | C[C@@H](OC(=O)N1CCN(c2cnn3cc(-c4cnn(C)c4)ccc23)CC1)c1cccc(F)c1 [Compound 79, (1R)-1-(3-Fluorophenyl)ethyl 4-[6-(1-methyl-1H-pyrazol-4-yl)pyrazolo[1,5-a]pyridin-3-yl]piperazine-1-carboxylate] | 5.46 | 16.1 | 2.81 | –
3 | CC1CN(c2cnn3cc(-c4cnn(C)c4)ccc23)CCN1C(=O)OC(C)(C)C (stereo not shown) [Compound 238, tert-butyl-2-methyl-4-(6-(1-methyl-1H-pyrazol-4-yl)pyrazolo[1,5-a]pyridin-3-yl)piperazine-1-carboxylate] | 6.34 | 430 | 1.54 | –
4 | C[C@@H](OC(=O)N1CCN(c2cnn3cc(-c4cnn(C)c4)cnc23)CC1)c1ccccc1 [Compound 73, (1R)-1-Phenylethyl 4-[6-(1-methyl-1H-pyrazol-4-yl)pyrazolo[1,5-a]pyrimidin-3-yl]piperazine-1-carboxylate] | 6.68 | 116 | 1.77 | –
5 | Cn1cc(-c2cnc3c(N4CCN(C(=O)OC(C)(C)C)CC4)cnn3c2)cn1 [Compound 2, tert-butyl 4-[6-(1-methyl-1H-pyrazol-4-yl)pyrazolo[1,5-a]pyrimidin-3-yl]piperazine-1-carboxylate] | 1.46 | 1460 | – | fold induction at 3.3 mg/kg [2, 4]: 1.13
6 | [2H]c1c([2H])c(C(OC(=O)N2CCN(c3cnn4cc(-c5cnn(C)c5)ccc34)CC2)C([2H])([2H])[2H])c([2H])c([2H])c1Cl (stereo not shown) [Compound 291, 1-(4-chlorophenyl-2,3,5,6-d4) ethyl-2,2,2-d3 4-(6-(1-methyl-1H-pyrazol-4-yl)pyrazolo[1,5-a]pyridin-3-yl)piperazine-1-carboxylate] | 6.24 | 0.016 | 6.93 | –
7 | Cn1cc(-c2ccc3c(N4CCN(S(=O)(=O)N5CCCCC5)CC4)cnn3c2)cn1 [Compound 157, 6-(1-methyl-1H-pyrazol-4-yl)-3-(4-(piperidin-1-ylsulfonyl)piperazin-1-yl)pyrazolo[1,5-a]pyridine] | 2.80 | 2100 | – | fold induction at 30 mg/kg [2, 4]: 1.91
8 | COc1cc2c(cc1OC)-c1[nH]nc(Nc3cccc(F)c3)c1C2 [JNJ-10198409, JNJ=10198409, reference compound] | – | – | – | GPR17 Fold Induction (Over Vehicle; 5 μM) [1]: 3.87; In vivo GPR17+ cells, GPR17 Fold Induction (Over Vehicle) [2]: 1.16; IC50 [3, 6]: > 10000 nM
9 | Nc1nc(Nc2ccc3c(c2)CC[C@@H](N2CCCC2)CC3)nn1-c1cc2c(nn1)-c1ccccc1CCC2 [Bemcentinib, bemcentinib, reference compound] | – | – | – | GPR17 Fold Induction (Over Vehicle; 5 μM) [1]: 2.99; In vivo GPR17+ cells, GPR17 Fold Induction (Over Vehicle) [2]: 1.09; IC50 [3, 6]: 428 nM
10 | C[C@@H](OC(=O)N1CCN(c2cnn3cc(-c4cnn(C)c4)ccc23)CC1)c1ccc(F)cc1 [Compound 77, (1R)-1-(4-Fluorophenyl)ethyl 4-[6-(1-methyl-1H-pyrazol-4-yl)pyrazolo[1,5-a]pyridin-3-yl]piperazine-1-carboxylate] | 7.12 | – | 8.64 | IC50 Values on PDGFRα Kinase Inhibition, IC50 (nM) ([3]; 11-point dose response, 10,000 nM to 0.169 nM, BLQ = below limit of quantitation): BLQ
11 | CNC(=O)c1cc(COc2nnc(Nc3ccc(Cl)cc3)c3ccoc23)ccn1 [Telatinib, telatinib, reference compound] | – | – | – | GPR17 Fold Induction (Over Vehicle; 5 μM) [1]: 3.90; In vivo GPR17+ cells, GPR17 Fold Induction (Over Vehicle) [2]: 10.68; IC50 [3, 6]: 68.8 nM

More lines, main results first:

Row | GPR17 Fold Induction (Over Vehicle; 3 μM) [1] | IC50 [3, 5] [nM] | Compound | fold induction at 3 mg/kg [2, 4] | further results
12 | 4.53 | 154 | Cn1cc(-c2ccc3c(N4CCN(c5ncc(C(O)C6CCOCC6)cn5)CC4)cnn3c2)cn1 (stereo not shown) [Compound 69, (2-{4-[6-(1-methyl-1H-pyrazol-4-yl)pyrazolo[1,5-a]pyridin-3-yl]piperazin-1-yl}pyrimidin-5-yl)(tetrahydro-2H-pyran-4-yl)methanol] | 1.09 | fold induction at 30 mg/kg [2, 4]: 2.34
13 | 9.74 | 80.4 | Cn1cc(-c2ccc3c(N4CCN(c5ncc(Cc6ccccn6)cn5)CC4)cnn3c2)cn1 [Compound 250, 6-(1-methyl-1H-pyrazol-4-yl)-3-{4-[5-(pyridine-2-ylmethyl)pyrimidin-2-yl]piperazin-1-yl}pyrazolo[1,5-a]pyridine] | 6.19 | –
14 | 16.27 | 974 | Cn1cc(-c2ccc3c(N4CCN(c5ccc(C(O)c6ccccc6)nc5)CC4)cnn3c2)cn1 (stereo not shown) [Compound 241, (5-(4-(6-(1-methyl-1H-pyrazol-4-yl)pyrazolo[1,5-a]pyridin-3-yl)piperazin-1-yl)pyridin-2-yl)(phenyl)methanol] | 6.43 | –
15 | 10.85 | 79.8 | Cn1cc(-c2ccc3c(N4CCN(c5ncc(C(CO)c6ccc(F)cc6)cn5)CC4)cnn3c2)cn1 (stereo not shown) [Compound 257, 2-(4-fluorophenyl)-2-(2-(4-(6-(1-methyl-1H-pyrazol-4-yl)pyrazolo[1,5-a]pyridin-3-yl)piperazin-1-yl)pyrimidin-5-yl)ethan-1-ol] | 2.32 | –
16 | 3.92 | 245 | Cn1cc(-c2ccc3c(N4CCN(c5ncn(Cc6ccccc6)n5)CC4)cnn3c2)cn1 [Compound 156, 3-(4-(1-benzyl-1H-1,2,4-triazol-3-yl)piperazin-1-yl)-6-(1-methyl-1H-pyrazol-4-yl)pyrazolo[1,5-a]pyridine] | 11.5 | –
17 | 5.04 | 17.1 | Cc1ccc(C(C)OC(=O)N2CCN(c3cnn4cc(-c5cnn(C)c5)ccc34)CC2)nc1 (stereo not shown) [Compound 261, 1-(5-methylpyridin-2-yl)ethyl 4-[6-(1-methyl-1H-pyrazol-4-yl)pyrazolo[1,5-a]pyridin-3-yl]piperazine-1-carboxylate] | 3.71 | –
18 | 12.64 | 17.3 | Cc1ccc(C(C)OC(=O)N2CCN(c3cnn4cc(-c5cnn(C)c5)ccc34)CC2)cn1 (stereo not shown) [Compound 317, 1-(6-methylpyridin-3-yl)ethyl 4-[6-(1-methyl-1H-pyrazol-4-yl)pyrazolo[1,5-a]pyridin-3-yl]piperazine-1-carboxylate] | 2.97 | –
19 | 2.45 | 1780 | Cn1cc(-c2ccc3c(N4CCN(c5ncc(Cc6ccccc6)o5)CC4)cnn3c2)cn1 [Compound 247, 5-benzyl-2-(4-(6-(1-methyl-1H-pyrazol-4-yl)pyrazolo[1,5-a]pyridin-3-yl)piperazin-1-yl)oxazole] | – | fold induction at 30 mg/kg [2, 4]: 8.43
20 | 9.26 | 126 | Cn1cc(-c2ccc3c(N4CCN(c5ncc(CC6CCCCO6)cn5)CC4)cnn3c2)cn1 (stereo not shown) [Compound 184, 6-(1-methyl-1H-pyrazol-4-yl)-3-(4-(5-((tetrahydro-2H-pyran-2-yl)methyl)pyrimidin-2-yl)piperazin-1-yl)pyrazolo[1,5-a]pyridine] | 1.07 | –
